In patent US7452914B2, “Spiro-benzo[c]chromene derivatives useful as modulators of the estrogen receptors” (Janssen Pharmaceutica N.V., priority 2004, dated 2008):
Like-named read-outs stand apart in the source and are kept apart here.

How the values were obtained:
MCF-7 cells = assay: MCF-7 Cell Proliferation Assay (14C-thymidine incorporation); format: cell-based; conditions: for IC50: 10 nM 17β-estradiol added, 14C-thymidine, read-out: Antagonist (No.); for EC50: MCF7, agonist mode, increase in 14C-thymidine relative to vehicle control, read-out: Agonist (No.)
Protocol: This assay was run according to the procedure described by Welshons, et al., (Breast Cancer Res. Treat., 1987, 10(2), 169-75), with minor modification.
Briefly, MCF-7 cells (from Dr. C. Jordan, Northwestern University) were maintained in RPMI 1640 phenol red free medium (Gibco) in 10% FBS (Hyclone), supplemented with bovine insulin and non-essential amino acid (Sigma). The cells were initially treated with 4-hydoxyltamoxifen (10^−8 M) and let stand at 37° C. for 24 hours. Following this incubation with tamoxifen, the cells were treated with compounds at various concentrations.
Compounds to be tested in the agonist mode were added to the culture media at varying concentrations. Compounds to be treated in the antagonist mode were prepared similarly, and 10 nM 17β-estradiol was also added to the culture media. The cells were incubated for 24 hours at 37° C. Following this incubation, 0.1 µCi of ^14C-thymidine (56 mCi/mmol, Amersham) was added to the culture media and the cells were incubated for an additional 24 hours at 37° C. The cells were then washed twice with Hank's buffered salt solution (HBSS) (Gibco) and counted with a scintillation counter. The increase in the ^14C-thymidine in the compound treated cells relative to the vehicle control cells were reported as percent increase in cell proliferation.

[1] = test system: Human Endometrial Ishikawa Cells; assay: Alkaline Phosphatase Assay in Human Endometrial Ishikawa Cells; format: cell-based; conditions: alkaline phosphatase activity, chemiluminescence; for IC50: antagonist mode, 10 nM 17β-estradiol added, read-out: Antagonist (No.); for EC50: 72 h, agonist mode, 3 days incubation, read-out: Agonist (No.)
Protocol: This assay was run according to the procedure described by Albert et a., Cancer Res, […], 50(11), 330-6-10, with minor modification.
Ishikawa cells (from ATCC) were maintained in DMEM/F12 (1:1) phenol red free medium (Gibco) supplemented with 10% calf serum (Hyclone). 24 hours prior to testing, the medium was changed to DMEM/F12 (1:1) phenol red free containing 2% calf serum.
Compounds to be tested in the agonist mode were added to the culture media at varying concentrations. Compounds to be treated in the antagonist mode were prepared similarly, and 10 nM 17β-estradiol was also added to the culture media. The cells were then incubated at 37° C. for 3 days. On the fourth day, the media was remove, 1 volume of 1× Dilution Buffer (Clontech) was added to the well followed by addition of 1 volume of Assay Buffer (Clontech). The cells were then incubated at room temperature for 5 minutes. 1 volume of freshly prepared Chemiluminescence Buffer (1 volume of chemiluminescent substrate (CSPD) in 19 volume Chemiluminescent Enhancer with final concentration of CSPD at 1.25 mM; Sigma Chemical Co.) was added. The cells were incubated at room temperature for 10 minutes and then quantified on a luminometer. The increase of chemiluminescence over vehicle control was used to calculate the increase in alkaline phosphatase activity.

[2] = Homo sapiens, MCF7, antagonist mode

Row | IC50 (MCF-7 cells; antagonist mode) | IC50 [1] | EC50 (MCF-7 cells; Homo sapiens) | IC50 (MCF-7 cells; [2]) | EC50 ([1]; Homo sapiens) | IC50 ([1]; Homo sapiens) | Compound
1 | 770 nM | 220 nM | – | – | – | – | 9R*-2″,2″-Dimethyl-propionic Acid-{9-[4′-(2′-piperidinyl-ethoxy)-phenyl]-11,14-spiro[4,5]-5,6,7,8-tetrahydro-9H-benzo[c]chromen-2-yl Ester [R*-15]
2 | 271 nM | 25.8 nM | – | – | – | – | 9R*-2″,2″-Dimethyl-propionic Acid-{9-[4′-(2′-piperidinyl-ethoxy)-phenyl]-11,15-spiro[5,5]-5,6,7,8-tetrahydro-9H-benzo[c]chromen-2-yl Ester [R*-16]
3 | > 10000 nM | > 10000 nM | – | – | – | – | 9S*-2″,2″-Dimethyl-propionic Acid-{9-[4′-(2′-piperidinyl-ethoxy)-phenyl]-11,14-spiro[4,5]-5,6,7,8-tetrahydro-9H-benzo[c]chromen-2-yl Ester [S*-15]
4 | > 10000 nM | > 10000 nM | – | – | – | – | 9S*-2″,2″-Dimethyl-propionic Acid-{9-[4′-(2′-piperidinyl-ethoxy)-phenyl]-11,15-spiro[5,5]-5,6,7,8-tetrahydro-9H-benzo[c]chromen-2-yl Ester [S*-16]
5 | – | – | > 10000 nM | 672 nM | > 10000 nM | 41.9 nM | Oc1ccc2c(c1)O[C@H](c1ccc(OCCN3CCCCC3)cc1)C1=C2CCC2(C1)SCCS2 (stereo in doubt) [R*-11, 9R*-2-(Hydroxy)-{9-[4′-(2′-piperidinyl-ethoxy)-phenyl]-11,14-spiro[4,5]-5,6,7,8-tetrahydro-9H-benzo[c]chromene]
6 | – | – | > 10000 nM | > 10000 nM | > 10000 nM | 1020 nM | Oc1ccc2c(c1)O[C@@H](c1ccc(OCCN3CCCCC3)cc1)C1=C2CCC2(C1)SCCS2 (stereo in doubt) [S*-11, 9S*-2-(Hydroxy)-{9-[4′-(2′-piperidinyl-ethoxy)-phenyl]-11,14-spiro[4,5]-5,6,7,8-tetrahydro-9H-benzo[c]chromene]
7 | – | – | > 10000 nM | 1060 nM | > 10000 nM | 29.6 nM | Oc1ccc2c(c1)OC(c1ccc(OCCN3CCCCC3)cc1)C1=C2CCC2(C1)SCCS2 (stereo not drawn) [Compound 11]
8 | – | – | > 10000 nM | 686 nM | > 10000 nM | 35.1 nM | Oc1ccc2c(c1)OC(c1ccc(OCCN3CCCCC3)cc1)C1=C2CCC2(C1)SCCCS2 (stereo not drawn) [Compound 12]
9 | – | – | > 10000 nM | > 10000 nM | > 10000 nM | 1050 nM | Oc1ccc2c(c1)OC(c1ccc(OCCN3CCCC3)cc1)C1=C2CCC2(C1)SCCS2 (stereo not drawn) [Compound 13]
10 | – | – | > 10000 nM | > 10000 nM | > 10000 nM | > 10000 nM | O=S1(=O)CCCS(=O)(=O)C12CCC1=C(C2)C(c2ccc(OCCN3CCCCC3)cc2)Oc2cc(O)ccc21 (stereo not drawn) [Compound 17]

Row | Compound | IC50 (MCF-7 cells; antagonist mode) | IC50 [1] | EC50 (MCF-7 cells; Homo sapiens) | IC50 (MCF-7 cells; [2]) | EC50 ([1]; Homo sapiens) | IC50 ([1]; Homo sapiens)
11 | CCN(CC)CCOc1ccc(C2Oc3cc(O)ccc3C3=C2CC2(CC3)SCCS2)cc1 (stereo not drawn) [Compound 14] | – | – | > 10000 nM | 4970 nM | > 10000 nM | 65.9 nM
